This experiment deals with interpubic ligament. The experiment can be described thus: murine pubic symphysis assay (MPS). The format is in vivo, mice. Conditions: for biological activity in the MPS assay (biological dose response comparison): estradiol-primed female mice, subcutaneous injection, ligament measured 18-20 hours later. The protocol:
The human relaxin and human relaxin analogs were tested in bioassays. The murine pubic symphysis assay (MPS) uses Charles River albino CFW female mice weighing 18-20 g., J. St. Louis, Can. J. Physiol. Pharmacol. 59, 507-512 (1981). Estradiol priming solution is 5 μg estradiol 17β-cyclopentylpropionate in 0.1 ml peanut oil. Human relaxin dose solutions are at concentrations of 2.5, 5.0, 10.0, 20.0, 40.0, and 80.0 μg/ml in a 1% water solution of benzopurpurine 4B. When mice have been housed for at least six days in quarantine and weigh 18-20 g, each one is given a subcutaneous injection of estradiol priming solution. Exactly seven days later mice are injected subcutaneously with 0.2 ml of the appropriate human relaxin dose solution. Between 18 and 20 hours after the human relaxin injection the mice were sacrificed by cervical dislocation. The interpubic ligament is exposed and measured with a micrometer.
The rat uterine contractility in vitro bioassay measures human relaxin ability to relax smooth muscle in the presence of electrically stimulated contractions, J. St. Louis, (1981) Can. J. Physiol. Pharmacol. 59, 507-512. The murine pubic symphysis ligament in vivo bioassay measures relaxin's remodeling effect on connective tissue, Steinetz, B. G. et al. (1960) Endocrinology 67, 102. […] The MPS does responses indicate equipotence for natural human relaxin and H2(B2-33 A24) B Lys^4 B Ala^25, FIG. 3. […] All of the human analogues and natural sequence human relaxin are essentially indistinguishable in the MPS bioassay.

Ends that are not written are not given here.

With `CC[C@H](C)[C@@H]1NC(=O)[C@H](C)NC(=O)[C@H]([C@@H](C)CC)NC(=O)[C@H](CCC(N)=O)NC(=O)[C@H](C)NC(=O)[C@H](CCCNC(=N)N)NC(=O)[C@H](C(C)C)NC(=O)[C@H](CC(C)C)NC(=O)[C@H](CCC(=O)O)NC(=O)[C@H](CCCNC(=N)N)NC(=O)CNC(=O)[C@@H](NC(=O)[C@H](CC(C)C)NC(=O)[C@H](CCCCN)NC(=O)[C@@H](NC(=O)[C@@H](NC(=O)[C@H](CCC(=O)O)NC(=O)[C@H](CCC(=O)O)NC(=O)[C@H](CCCCN)NC(=O)[C@H](Cc2c[nH]c3ccccc23)NC(=O)[C@@H](N)CO)C(C)C)[C@@H](C)CC)CSSC[C@@H]2NC(=O)[C@@H](NC(=O)[C@H](CCCCN)NC(=O)[C@H](CC(N)=O)NC(=O)[C@H](C)NC(=O)[C@H](CC(C)C)NC(=O)[C@H](C)NC(=O)[C@H](CO)NC(=O)[C@H](Cc3ccc(O)cc3)NC(=O)[C@H](CC(C)C)NC(=O)[C@@H]3CCC(=O)N3)CSSC[C@H](NC(=O)CNC(=O)[C@H](C(C)C)NC(=O)[C@H](Cc3c[nH]cn3)NC2=O)C(=O)N[C@@H]([C@@H](C)O)C(=O)N[C@@H](CCCCN)C(=O)N[C@@H](CCCNC(=N)N)C(=O)N[C@@H](CO)C(=O)N[C@@H](CC(C)C)C(=O)N[C@@H](C)C(=O)N[C@@H](CCCNC(=N)N)C(=O)N[C@@H](Cc2ccccc2)C(=O)N[C@H](C(=O)O)CSSC[C@@H](C(=O)NCC(=O)N[C@@H](C)C(=O)N[C@@H](CO)C(=O)N[C@H](C(=O)N[C@@H](Cc2c[nH]c3ccccc23)C(=O)N[C@@H](CO)C(=O)N[C@@H](CCCCN)C(=O)N[C@@H](CCCNC(=N)N)C(=O)N[C@@H](CO)C(=O)N[C@@H](CC(C)C)C(=O)O)[C@@H](C)O)NC1=O`, the “biological activity in the MPS assay (biological dose response comparison)” value is “biological activity”. Same read-out and setting: next, `CC[C@H](C)[C@@H]1NC(=O)[C@H](C)NC(=O)[C@H]([C@@H](C)CC)NC(=O)[C@H](CCC(N)=O)NC(=O)[C@H](C)NC(=O)[C@H](CCCNC(=N)N)NC(=O)[C@H](C(C)C)NC(=O)[C@H](CC(C)C)NC(=O)[C@H](CCC(=O)O)NC(=O)[C@H](CCCNC(=N)N)NC(=O)CNC(=O)[C@@H](NC(=O)[C@H](CC(C)C)NC(=O)[C@H](CCCCN)NC(=O)[C@@H](NC(=O)[C@@H](NC(=O)[C@H](CCC(=O)O)NC(=O)[C@H](CCC(=O)O)NC(=O)[C@H](CCCCN)NC(=O)[C@H](Cc2c[nH]c3ccccc23)NC(=O)[C@H](CO)NC(=O)[C@@H](N)CC(=O)O)C(C)C)[C@@H](C)CC)CSSC[C@@H]2NC(=O)[C@@H](NC(=O)[C@H](CCCCN)NC(=O)[C@H](CC(N)=O)NC(=O)[C@H](C)NC(=O)[C@H](CC(C)C)NC(=O)[C@H](C)NC(=O)[C@H](CO)NC(=O)[C@H](Cc3ccc(O)cc3)NC(=O)[C@H](CC(C)C)NC(=O)[C@@H]3CCC(=O)N3)CSSC[C@H](NC(=O)CNC(=O)[C@H](C(C)C)NC(=O)[C@H](Cc3c[nH]cn3)NC2=O)C(=O)N[C@@H]([C@@H](C)O)C(=O)N[C@@H](CCCCN)C(=O)N[C@@H](CCCNC(=N)N)C(=O)N[C@@H](CO)C(=O)N[C@@H](CC(C)C)C(=O)N[C@@H](C)C(=O)N[C@@H](CCCNC(=N)N)C(=O)N[C@@H](Cc2ccccc2)C(=O)N[C@H](C(=O)O)CSSC[C@@H](C(=O)NCC(=O)N[C@@H](C)C(=O)N[C@@H](CO)C(=O)N[C@H](C(=O)N[C@@H](Cc2c[nH]c3ccccc23)C(=O)N[C@@H](CO)C(=O)N[C@@H](CCCCN)C(=O)N[C@@H](CCCNC(=N)N)C(=O)N[C@@H](CO)C(=O)N[C@@H](CC(C)C)C(=O)O)[C@@H](C)O)NC1=O`: “biological activity”. For “porcine relaxin: Porcine relaxin, used for the standard curve in the RUC assay and compared in MPS (Relaxin B chain QSTNDFIKACGRELVRLWVEICGSVSWGRTAL; Relaxin A chain RMTLSEKCCQVGCIRKDIARLC; not fully specified; ends and bridges not checked; UniProt P01348 25-56; P01348 161-182, looked up) [reference compound]”, the “MPS dose response curve, slope / parallelism relative to the other relaxins” value (mouse, in vivo) is recorded as “non-parallel response”.

These data come from patent US4835251A, “Method of chain combination” (Genetech, Inc., priority 1986, dated 1989).
